Patent US8372808B2, “Suppression of glial fibrillary acidic protein” (Wisconsin Alumni Research Foundation, priority 2008, dated 2013)

Assays:
GFAP promoter = GFAP promoter activity in brain of Tg172.9 mice (Dual-Glo luciferase assay); type: in vivo, mouse
Method: Controls were injected with vehicle only. Brains were collected at various times post-injection, and analyzed for GFAP promoter activity using the Dual-Glo assay. Graphs present the mean±SEM (n=4 at each data point). Statistical significance was evaluated by unpaired t-test (* p<0.05). […] Brains were collected at 6 hours post-injection and analyzed for GFAP promoter activity using the Dual-Glo assay. Graphs present the mean±SD (n=4 at each data point). Statistical significance was evaluated by unpaired t-test (* p<0.05).
Another group of mice were injected with the same volume of vehicle alone (n=15). Brains were bisected sagittally with one half analyzed for GFAP promoter activity using the Dual-Glo assay, and the other half analyzed for GFAP protein using the sandwich ELISA. FIG. 7A is a bar graph showing hGFAP promoter activity of clomipramine-treated mice. The mice show a 26% reduction in hGFAP promoter activity compared to vehicle-treated controls. FIG. 7B is a bar graph showing the GFAP protein levels of clomipramine-treated mice. The mice show a 57% reduction in total GFAP content compared to vehicle-treated controls. Graphs present the mean±SD (* p<0.05, ***p<0.001, unpaired t-test).
At various times after injection, from 0-48 hours, brains were harvested for measurement of GFAP promoter activity using the Dual-Glo luciferase assay, and GFAP protein using a sandwich ELISA.
Injections were given in the afternoon, between 3-5 PM. Controls were transgenic littermates injected with vehicle alone. At the end of the three week course of injections (and one day after the last injection), brains were harvested for analysis of GFAP promoter activity and protein levels as described above.
To achieve significant reductions of GFAP protein in vivo may require chronic treatments, given the slow turnover of this protein. […] Controls were injected with vehicle alone. One day after the last injection, brains were harvested and assayed for both GFAP promoter activity and GFAP protein.

[1] = pilot studies with daily injections of clomipramine (tolerability); type: in vivo, mouse; conditions: daily injections of 40 mg/kg; after 2 weeks
mGFAP protein = test: cell-based GFAP protein level assay (cell-based ELISA) in 172.9 cells; design: species or system mouse; conditions: tertiary screen; 48 hr exposure; at the MTDcc
[2] = sometimes considered in combination with desmethyl-clomipramine; cited from earlier work
GAPDH promoter = test: housekeeping GAPDH promoter activity in brain of Tg172.9 mice; type: in vivo, mouse; conditions: 40 mg/kg IP every other day for 3 weeks
Method: The dual transgenic reporter mice (FVB-Tg(GFAP-luc,GAPDH-luc)172.9Mes/J mice (JR#9638)) were developed as follows. The two transgenes were co-injected at equimolar ratios into the pronuclei of fertilized eggs on either FVB/N or FB6F1 hybrid backgrounds, using a combined concentration of 3 ng/μL. Genotyping was performed by PCR on genomic DNA isolated from tail biopsies at weaning, using the following conditions: one cycle at 95° C. 3 min, 32 cycles of 95° C. 40 s, 58° C. 30 s, 72° C. 1 min and a final extension step at 72° C. for 5 min. The primers used for detection of the GFAP-fLuc transgene were 5′-[…]-3′ (forward) and 5′-[…]-3′ (reverse), and for detection of the GAPDH-RLuc transgene were 5″-[…]-3′ (forward) and 5′-[…]-3′ (reverse). The predicted sizes for the PCR fragments are 403 bp for the GFAP-fLuc transgene, and 551 by for the GAPDH-RLuc transgene. Nine founder mice were identified that contained both transgenes, and were mated to FVB/N mice to establish lines. (The Tg172-9 line of mice has been donated to the Jackson Laboratory ([…]) for unrestricted distribution (stock #JR9638). The GAPDH (glyceraldehyde 3-phosphate dehydrogenase) promoter was used to monitor transcription of a housekeeping gene for signal normalization.

172.9 cells = test: cell viability (CellTiter-Glo) / MTDcc in 172.9 cells
Method: Criterion for acceptable viability was >70% survival.
Cell viability was determined as follows. After exposure to each compound (duplicate wells per compound), 50 μl of CellTitier-Glo Luminescent Cell Viability Assay reagent (G7571, Promega) was added to the 100 μl of media present in each well, and the luminescent signal (reflecting intracellular ATP level) was detected with either a Victor 3-V plate reader (Perkin Elmer) or GloRunner Microplate Luminometer (Turner Biosystems). Cell viability was expressed as a percent of non-treated control cells.
A dose-response curve was created for each compound (0.1, 0.5, 1, 5, 10, 15, 20 μM) using 48 hr exposures. The MTDcc (“maximum tolerated dose—cell culture”) indicates the highest concentration that retained at least 70% cell viability. Each compound and concentration was analyzed in quadruplicate wells. EGCDG: epigallocatechin 3,5-digallate; NPPB: 5-nitro-2-phenylproplyaminobenzoic acid. As used herein, MTDcc refers to the MTD as determined by this assay under the above conditions.

Which results are given for `CN(C)CCCN1c2ccccc2CCc2ccc(Cl)cc21` [clomipramine]?
reduction in GFAP promoter activity compared to vehicle-treated controls (GFAP promoter; 40 mg/kg IP every other day for 3 weeks): 26%; time at which promoter activity returned to normal (GFAP promoter; single 40 mg/kg IP, brain): ≤ 24 h; time of peak reduction in promoter activity after injection (GFAP promoter; single 40 mg/kg IP, brain): 4 to 6 h; reduction in promoter activity (GFAP promoter; single injection of 40 mg/kg IP, brains collected at 4 hours after injection): 38%; effect on promoter activity (GFAP promoter; single injection, doses of 5-20 mg/kg IP): without effect; side effect of daily injections [1]: weight loss; % GFAP reductions, mGFAP protein via ELISA (mGFAP protein): 20.6%; plasma concentration considered therapeutic in humans [2]: 300 to 1750 nM; change in activity from the housekeeping GAPDH promoter (GAPDH promoter): no significant change; cell viability (172.9 cells; quaternary screen, 10 days of exposure): acceptable cell viability; MTDcc (172.9 cells; tertiary screen, 48 hr exposure, 0.1-20 μM, highest concentration that retained at least 70% cell viability): 12.5 µM
